Data: ChEMBL document CHEMBL4130638, “Discovery of the Polyamine Conjugate with Benzo[ cd]indol-2(1 H)-one as a Lysosome-Targeted Antimetastatic Agent” (J Med Chem, 2018)
Activity calls are given as the source filed them. No cut-off for these calls is given here.

Columns and labels:
[1] = tested on: HCT-116; experiment: Downregulation of cathepsin-B protein expression in human HCT116 cells after 24 hrs by Western blot method; format: functional, cell-based
[2] = tested on: CT26; experiment: Antitumor activity against mouse CT26 cells implanted in Balb/c mouse assessed as solid tumor growth inhibition at 1 mg/kg, iv for 14 consecutive days measured on day 15 relative to control; format: functional; conditions: 360 h, read-out: TGI
[3] = tested on: CT26; experiment: Induction of autophagy in mouse CT26 cells at 10 to 20 uM after 24 hrs in presence of autophagy inhibitor 3-MA by MDC staining based flow cytometry; format: functional, cell-based
[4] = tested on: HCT-116; experiment: Induction of apoptosis in human HCT116 cells assessed as late apoptotic cells after 24 hrs by annexin V-FITC/propidium iodide staining based flow cytometry; format: functional, cell-based
[5] = tested on: HCT-116; experiment: Downregulation of cathepsin-D protein expression in human HCT116 cells after 24 hrs by Western blot method; format: functional, cell-based
[6] = tested on: HCT-116; experiment: Downregulation of cathepsin-L protein expression in human HCT116 cells after 24 hrs by Western blot method; format: functional, cell-based
[7] = tested on: HCT-116; experiment: Induction of autophagy in human HCT116 cells at 5 to 20 uM after 24 hrs in presence of pan-caspase inhibitor Z-VAD-FMK by MDC staining based flow cytometry; format: functional, cell-based
[8] = tested on: K562; experiment: Growth inhibition of human K562 cells after 48 hrs by MTT assay; format: functional, cell-based; conditions: K562, 48 h
[9] = tested on: HCT-116; experiment: Induction of apoptosis in human HCT116 cells assessed as late apoptotic cells at 10 uM after 24 hrs by annexin V-FITC/propidium iodide staining based flow cytometry (reference value: 2.03%); format: functional
[10] = tested on: HCT-116; experiment: Induction of apoptosis in human HCT116 cells assessed as live cells at 10 uM after 24 hrs by annexin V-FITC/propidium iodide staining based flow cytometry (reference value: 89.97%); format: functional
[11] = Drug uptake in human HCT116 cells by confocal microscopic method; format: ADME, cell-based; conditions: hct-116
[12] = tested on: HCT-116; experiment: Upregulation of cleaved caspase-3 protein expression in human HCT116 cells up to 10 uM after 24 hrs by Western blot method; format: functional, cell-based
[13] = tested on: HCT-116; experiment: Downregulation of MMP2 protein expression in human HCT116 cells after 24 hrs by Western blot method; format: functional, cell-based
[14] = tested on: CT26; experiment: Induction of autophagy in mouse CT26 cells at 10 to 20 uM after 24 hrs in presence of autophagy inhibitor 3-MA by Lyso staining based flow cytometry; format: functional, cell-based
[15] = tested on: HCT-116; experiment: Upregulation of LAMP1 protein expression in human HCT116 cells at 10 uM after 24 hrs by Western blot method; format: functional, cell-based
[16] = tested on: HCT-116; experiment: Downregulation of Bcl2 protein expression in human HCT116 cells up to 10 uM after 24 hrs by Western blot method; format: functional, cell-based
[17] = tested on: HCT-116; experiment: Upregulation of p53 protein expression in human HCT116 cells up to 10 uM after 24 hrs in presence of autophagy inhibitor 3-MA by Western blot method; format: functional, cell-based
[18] = tested on: HCT-116; experiment: Downregulation of beta-catenin protein expression in human HCT116 cells after 24 hrs by Western blot method; format: functional, cell-based
[19] = tested on: HCT-116; experiment: Upregulation of p53 protein expression in human HCT116 cells after 24 hrs by Western blot method; format: functional, cell-based
[20] = tested on: HCT-116; experiment: Growth inhibition of human HCT116 cells after 48 hrs by MTT assay; format: functional, cell-based; conditions: HCT-116, 48 h
[21] = tested on: CT26; experiment: Induction of apoptosis in mouse CT26 cells after 24 hrs by acridine orange and ethidium bromide staining based high content screening analysis; format: functional, cell-based
[22] = tested on: HCT-116; experiment: Induction of autophagy in human HCT116 cells at 5 to 20 uM after 24 hrs in presence of autophagy inhibitor 3-MA by MDC staining based flow cytometry; format: functional, cell-based
[23] = tested on: HCT-116; experiment: Induction of autophagy in human HCT116 cells at 1 to 20 uM after 24 hrs by Lyso staining based flow cytometry; format: functional, cell-based
[24] = tested on: HCT-116; experiment: Downregulation of mTOR protein expression in human HCT116 cells after 24 hrs by Western blot method; format: functional, cell-based
[25] = tested on: Mus musculus; experiment: Toxicity in Balb/c mouse implanted with mouse CT26 cells assessed as increase in spleen weight at 1 mg/kg, iv for 14 consecutive days starting from day 8 post tumor implantation; format: organism-based; conditions: in vivo
[26] = tested on: HCT-116; experiment: Upregulation of LAMP2 protein expression in human HCT116 cells at 10 uM after 24 hrs by Western blot method; format: functional, cell-based
[27] = tested on: HCT-116; experiment: Induction of autophagy in human HCT116 cells after 24 hrs by MDC staining based flow cytometry; format: functional, cell-based
[28] = tested on: HCT-116; experiment: Upregulation of cleaved caspase-8 protein expression in human HCT116 cells up to 10 uM after 24 hrs by Western blot method; format: functional, cell-based
[29] = tested on: HCT-116; experiment: Upregulation of cleaved caspase-3 protein expression in human HCT116 cells up to 10 uM after 24 hrs in presence of autophagy inhibitor 3-MA by Western blot method; format: functional, cell-based
[30] = tested on: HCT-116; experiment: Induction of autophagy in human HCT116 cells assessed as accumulation of LC3-2 after 24 hrs by Western blot method; format: functional, cell-based
[31] = tested on: Mus musculus; experiment: Toxicity in Balb/c mouse implanted with mouse CT26 cells assessed as increase in heart weight at 1 mg/kg, iv for 14 consecutive days starting from day 8 post tumor implantation; format: organism-based; conditions: in vivo
[32] = Drug uptake in lysosomes isolated from human HCT116 cells at 10 uM after 8 hrs by Lyso-tracker staining based confocal microscopic method; format: ADME, subcellular, Lysosome; conditions: hct-116, 8 h
[33] = tested on: CT26; experiment: Induction of apoptosis in mouse CT26 cells assessed as early apoptotic cells at 10 uM after 24 hrs by annexin V-FITC/propidium iodide staining based flow cytometry (reference value: 3.91%); format: functional
[34] = tested on: CT26; experiment: Induction of apoptosis in mouse CT26 cells assessed as live cells at 10 uM after 24 hrs in presence of autophagy inhibitor 3-MA by annexin V-FITC/propidium iodide staining based flow cytometry (reference value: 89.47%); format: functional
[35] = tested on: CT26; experiment: Induction of apoptosis in mouse CT26 cells assessed as necrotic cells at 10 uM after 24 hrs by annexin V-FITC/propidium iodide staining based flow cytometry (reference value: 4.36%); format: functional
[36] = tested on: SMMC-7721; experiment: Growth inhibition of human SMMC7721 cells after 48 hrs by MTT assay; format: functional, cell-based; conditions: SMMC-7721, 48 h
[37] = tested on: CT26; experiment: Antimigratory activity against mouse CT26 cells after 24 hrs by crystal violet staining based transwell assay; format: functional, cell-based
[38] = tested on: CT26; experiment: Induction of apoptosis in mouse CT26 cells assessed as late apoptotic cells at 10 uM after 24 hrs in presence of autophagy inhibitor 3-MA by annexin V-FITC/propidium iodide staining based flow cytometry (reference value: 2.26%); format: functional
[39] = tested on: CT26; experiment: Growth inhibition of mouse CT26 cells after 24 hrs by MTT assay; format: functional, cell-based
[40] = tested on: HCT-116; experiment: Induction of apoptosis in human HCT116 cells assessed as early apoptotic cells at 10 uM after 24 hrs in presence of pan-caspase inhibitor Z-VAD-FMK by annexin V-FITC/propidium iodide staining based flow cytometry (reference value: 4.1%); format: functional
[41] = tested on: HCT-116; experiment: Induction of apoptosis in human HCT116 cells assessed as early apoptotic cells at 10 uM after 24 hrs by annexin V-FITC/propidium iodide staining based flow cytometry (reference value: 4.1%); format: functional
[42] = tested on: Mus musculus; experiment: Toxicity in Balb/c mouse implanted with mouse CT26 cells assessed as changes in body weight at 1 mg/kg, iv for 7 consecutive days starting from day 8 post tumor implantation; format: organism-based; conditions: in vivo

SMILES: Cl.Cl.Cl.NCCCCNCCCCNCCCCN1C(=O)c2cccc3cccc1c23
- Activity [1]: Dose-dependent effect
- inhibition in vivo at 1 mg/kg [2]: 46.9%
- Activity [3]: inactive
- Activity [4]: Dose-dependent effect
- Activity [5]: Dose-dependent effect
- Activity [6]: Dose-dependent effect
- Activity [7]: inactive
- IC50 [8]: 12 µM
- Activity [9]: 27.58%
- Activity [10]: 38.14%
- Drug uptake [11]: Dose-dependent effect and Tde
- Activity [12]: Active
- Activity [13]: Dose-dependent effect
- Activity [14]: inactive
- Activity [15]: Active
- Activity [16]: Active
- Activity [17]: inactive
- Activity [18]: Dose-dependent effect
- Activity [19]: Dose-dependent effect
- IC50 [20]: 5.72 µM
- Activity [21]: Dose-dependent effect
- Activity [22]: inactive
- Activity [23]: Active
- Activity [24]: Dose-dependent effect
- Activity [25]: Toxic
- Activity [26]: Active
- Activity [27]: Dose-dependent effect
- Activity [28]: Active
- Activity [29]: inactive
- Activity [30]: Dose-dependent effect
- Activity [31]: Toxic
- Drug uptake [32]: Active
- Activity [33]: 42.37%
- Activity [34]: 61.63%
- Activity [35]: 3.56%
- IC50 [36]: 13.5 µM
- Activity [37]: Dose-dependent effect
- Activity [38]: 6.59%
- growth inhibition (GI) [39]: Dose-dependent effect
- IC50 ([39]; CT26, 24 h): 11.6 µM
- Activity [40]: 11.4%
- Activity [41]: 31.31%
- Activity [42]: Non-Toxic
